From patent US11266668B2, “Dietary supplement for glycemia control and diabetes prevention” (WORLD PHARMACEUTICAL TECHNOLOGY, LLC., priority 2018, dated 2022)
Marks after values point to notes of the source that are not given here.

Experiments:
Sprague-Dawley (SD) rats = test: sucrose loading test (postprandial blood glucose after sucrose gavage); format: in vivo, rat; conditions: male SD rats, sucrose 2.0 g/kg gavage, 5 mg/kg
Experimental: The inhibitory effect of Example Formula 1 and Example Formula 2 (see Table 1 and Table 2) on postprandial hyperglycemia after carbohydrate loading in Sprague-Dawley (SD) rats was assessed. All animal studies were performed according to the Act on Welfare and Management of Animals law—Act No. 105 of Oct. 1, 1973. Six week-old male SD rats were utilized and fed a solid diet for one week. Rats were housed five per cage in a room with a 12:12 hour light:dark cycle and an ambient temperature of 22-25° C. After 4 groups (n=5) were fasted for one day, 2.0 g/kg of sucrose were gavaged concurrently with Example Formula 1 (200 and 400 mg/kg) (e.g., provided at 200 or 400 mg total weight of Example Formula 1 per 1 Kg of the testing subject or patient) or 5 mg/kg Acarbose. The blood samples were collected from the tail after treatment and blood glucose concentrations were determined at 0, 0.5, 1, and 2 hours by utilizing glucose oxidase method. FIG. 1 and FIG. 2 show the effect of different dosage of Example Formula 1 or Example Formula 2 on sucrose loading test. After fasting for one day, 7-week-old, male SD rats were gavaged with sucrose solution (2.0 g/kg) with or without (the Control sample) Example Formula 1 or Example Formula 2. Acarbose was utilized as a positive control. Each point in the drawing represents mean±SD. (n=5). *p<0.05, **p<0.01 versus their corresponding controls at the same time points by unpaired Student's t-test. After fasting for one day, 7-week-old, male SD rats were gavaged with sucrose solution (2.0 g/kg) with or without the Comparative Example Formula 1. Acarbose was used as a positive control. Each point represents mean±SD. (n=5). *p<0.05, **p<0.01 versus their corresponding controls at the same time points by unpaired Student's t-test. Table 4 below lists the blood glucose level of rats under different dosage of Example Formula 1 and Comparative Example Formula 1 on sucrose loading test (unit: mM). The procedure is as described above. After fasting for one day, 7-week-old, male SD rats were gavaged with sucrose solution (2.0 g/kg) with or without Example Formula 1 or Comparative Example Formula 1. Acarbose was used as a positive control. Each point represents mean±SD. (n=5). *p<0.05, **p<0.01 versus their corresponding controls at the same time points by unpaired Student's t-test.

[1] = clinical phase I dose-escalation trial; cited from earlier work

| Compound | blood glucose level (Sprague-Dawley (SD) rats; time 0 hour) | blood glucose level (Sprague-Dawley (SD) rats; time 0.5 hour) | blood glucose level (Sprague-Dawley (SD) rats; time 1 hour) | blood glucose level (Sprague-Dawley (SD) rats; time 2 hour) | clinically tolerable dose [1] |
| --- | --- | --- | --- | --- | --- |
| C[C@H]1O[C@H](O[C@H]2[C@H](O)[C@@H](O)[C@@H](O[C@H]3[C@H](O)[C@@H](O)C(O)O[C@@H]3CO)O[C@@H]2CO)[C@H](O)[C@@H](O)[C@@H]1N[C@H]1C=C(CO)[C@@H](O)[C@H](O)[C@H]1O (some centres unmarked) [Acarbose] | 5.4 ± 0.2 mM | 6.5 ± 0.3** mM | 6.9 ± 0.4** mM | 6.5 ± 0.4 mM | – |
| O=CC[C@@H](O)[C@H](O)[C@H](O)CO [2-deoxy-D-glucose] | – | – | – | – | 63 mg/kg |
